Each structure is given as a SMILES string.

For 49 molecules, IC50 results are on record in patent publication US11292791B2 (priority 2017, dated 2022).

This assay addresses BRD4 (Homo sapiens (Human), UniProt O60885). Particulars: read-out: BRD4 IC50 (μM gmean).
In the case of `COC(=O)N1c2ccc3c(nc(Cc4cccc(F)c4)n3C3CCNCC3)c2CC[C@@H]1C` [Example 102], the IC50 was in the range of 1 to 1000 µM.
For `COC(=O)N1c2ccc3c(nc(Cc4ccc(OC)c(F)c4)n3C3CCNCC3)c2CC[C@@H]1C` [Example 103] the value was 1 to 1000 µM; for `COC(=O)N1c2ccc3c(nc(CCc4ccccc4)n3C3CCNCC3)c2CC[C@@H]1C` [Example 104], 1 to 1000 µM.
As for `COC(=O)N1c2ccc3c(nc(Cc4ccc(OC)cc4)n3C3CCNCC3)c2CC[C@@H]1C` [Example 107], the half-maximal inhibitory concentration (IC50) lay in the range of 1 to 1000 µM.
Consider `COC(=O)N1c2ccc3c(nc(Cc4ccc(OC)cc4)n3C3CCC4(CC3)CNC4)c2CC[C@@H]1C` [Example 108], for which the IC50 fell in the range of 1 to 1000 µM.
As for `COC(=O)N1c2ccc3c(nc(CCn4cccn4)n3C3CCC4(CC3)CNC4)c2CC[C@@H]1C` [Example 109], the IC50 fell in the range of 1 to 1000 µM.
For `COC(=O)N1c2ccc3c(nc(Cc4cccc(OC)c4)n3C3CC4(CNC4)C3)c2CC[C@@H]1C` [Example 110] the value was 1 to 1000 µM.
Take `COC(=O)N1c2ccc3c(nc(Cc4ccccc4)n3[C@H]3CCC34CCNCC4)c2CC[C@@H]1C` [Example 111, methyl (S)-2-benzyl-7-methyl-3-((S)-7-azaspiro[3.5]nonan-1-yl)-3,7,8,9-tetrahydro-6H-imidazo[4,5-f]quinoline-6-carboxylate]: the half-inhibitory concentration (IC50) lay in the range of 1 to 1000 µM.
Take `COC(=O)N1c2ccc3c(nc(Cc4ccccc4)n3[C@@H]3CCC34CCNCC4)c2CC[C@@H]1C` [Example 112, methyl (S)-2-benzyl-7-methyl-3-((R)-7-azaspiro[3.5]nonan-1-yl)-3,7,8,9-tetrahydro-6H-imidazo[4,5-f]quinoline-6-carboxylate]: the IC50 is 1 to 1000 µM.
For the molecule `COC(=O)N1c2ccc3c(nc(C[C@@H](C(=O)O)c4ccccc4)n3C)c2CC[C@@H]1C` [Example 133, (2R)-3-[(7S)-6-(methoxycarbonyl)-3,7-dimethyl-3H,6H,7H,8H,9H-imidazo[4,5-f]quinolin-2-yl]-2-phenylpropanoic Acid], the half-inhibitory concentration (IC50) was in the range of 1 to 1000 µM.
With `COC(=O)N1c2ccc3c(nc(C[C@H](C(=O)O)c4ccccc4)n3C)c2CC[C@@H]1C` [Example 134, (2S)-3-[(7S)-6-(methoxycarbonyl)-3,7-dimethyl-3H,6H,7H,8H,9H-imidazo[4,5-f]quinolin-2-yl]-2-phenylpropanoic Acid], the concentration for half-maximal inhibition (IC50) was in the range of 1 to 1000 µM.
Regarding `COC(=O)N1c2ccc3c(nc(C[C@H](C(=O)O)c4ccccc4)n3C)c2CC[C@@H]1C` [Example 135, (S)-3-((S)-6-(methoxycarbonyl)-3,7-dimethyl-6,7,8,9-tetrahydro-3H-imidazo[4,5-f]quinolin-2-yl)-2-phenylpropanoic Acid], the IC50 is 1 to 1000 µM.
Take `COC(=O)N1c2ccc3c(nc(C[C@@H](C(=O)O)c4ccccc4)n3C)c2CC[C@@H]1C` [Example 136, (R)-3-((S)-6-(methoxycarbonyl)-3,7-dimethyl-6,7,8,9-tetrahydro-3H-imidazo[4,5-f]quinolin-2-yl)-2-phenylpropanoic Acid]: the IC50 fell in the range of 1 to 1000 µM.
As for `COC(=O)N1c2ccc3c(nc(C[C@@H](C(=O)O)c4ccccc4)n3CCN(C)C)c2CC[C@@H]1C` [Example 137, (R)-3-((S)-3-(2-(dimethylamino)ethyl)-6-(methoxycarbonyl)-7-methyl-6,7,8,9-tetrahydro-3H-imidazo[4,5-f]quinolin-2-yl)-2-phenylpropanoic Acid], the half-inhibitory concentration (IC50) fell in the range of 1 to 1000 µM.
Take `COC(=O)N1c2ccc3c(nc(C[C@H](C(=O)O)c4ccccc4)n3CCN(C)C)c2CC[C@@H]1C` [Example 138, (S)-3-((S)-3-(2-(dimethylamino)ethyl)-6-(methoxycarbonyl)-7-methyl-6,7,8,9-tetrahydro-3H-imidazo[4,5-f]quinolin-2-yl)-2-phenylpropanoic Acid]: the IC50 was 1 to 1000 µM.
In the case of `COC(=O)N1c2ccc3c(nc(CCn4cccn4)n3CCN3CCOCC3)c2CC[C@@H]1C` [Example 226], the IC50 is 1 to 1000 µM.
`COC(=O)N1c2ccc3c(nc(CCn4cccn4)n3CCN3CCN(C)CC3)c2CC[C@@H]1C` [Example 227]: the IC50 is 1 to 1000 µM.
For the molecule `COC(=O)N1c2ccc3c(nc(CCn4cccn4)n3CCN3CC4(COC4)C3)c2CC[C@@H]1C` [Example 228], the IC50 lay in the range of 1 to 1000 µM.
To `COC(=O)N1c2ccc3c(nc(CCn4ccccc4=O)n3CCN3CCNCC3)c2CC[C@@H]1C` [Example 229] belongs 1 to 1000 µM; to `COC(=O)N1c2ccc3c(nc(CCn4ccccc4=O)n3CCN3CCN(C)CC3)c2CC[C@@H]1C` [Example 230], 1 to 1000 µM.
Regarding `COC(=O)N1c2ccc3c(nc(CCc4ccccc4)n3CCN(C)C)c2CC[C@@H]1C` [Example 242, methyl-(7S)-3-[2-(dimethylamino)ethyl]-7-methyl-2-(2-phenylethyl)-3H,6H,7H,8H,9H-imidazo[4,5-f]quinoline-6-carboxylate], the concentration for half-maximal inhibition (IC50) fell in the range of 1 to 1000 µM.
For `COC(=O)N1c2ccc3c(nc(CCc4ccccc4)n3CCN3CCOCC3)c2CC[C@@H]1C` [Example 245] the value was 1 to 1000 µM; for `COC(=O)N1c2ccc3c(nc(C)n3CCN3CCOCC3)c2CC[C@@H]1C` [Example 248], 1 to 1000 µM.
With `COC(=O)N1c2ccc3c(nc(C(C)(C)C)n3CCN3CCOCC3)c2CC[C@@H]1C` [Example 249], the half-maximal inhibitory concentration (IC50) is 1 to 1000 µM.
As for `COC(=O)N1c2ccc3c(nc(-c4ccccc4)n3CCN3CCOCC3)c2CC[C@@H]1C` [Example 250], the IC50 lay in the range of 1 to 1000 µM.
Take `COC(=O)N1c2ccc3c(nc(CCC4CC4)n3CCN3CCOCC3)c2CC[C@@H]1C` [Example 251]: the half-maximal inhibitory concentration (IC50) was in the range of 1 to 1000 µM.
To `COC(=O)N1c2ccc3c(nc(Cc4ccccc4)n3CC3CCS(=O)(=O)CC3)c2CC[C@@H]1C` [Example 253] belongs 1 to 1000 µM; to `COC(=O)N1c2ccc3c(nc(Cc4ccccc4)n3C3CCS(=O)(=O)CC3)c2CC[C@@H]1C` [Example 254], 1 to 1000 µM.
`COC(=O)N1c2ccc3c(nc(Cc4ccccc4)n3[C@H]3CC[C@H](C#N)CC3)c2CC[C@@H]1C` [Example 255]: the concentration for half-maximal inhibition (IC50) is 1 to 1000 µM.
Regarding `COC(=O)N1c2ccc3c(nc(Cc4ccccc4)n3[C@H]3CC[C@@H](C#N)CC3)c2CC[C@@H]1C` [Example 256], the concentration for half-maximal inhibition (IC50) lay within 1 to 1000 µM.
For `COC(=O)N1c2ccc3c(nc(Cc4ccccc4)n3C3CCN(C)CC3)c2CC[C@@H]1C` [Example 257] the value was 1 to 1000 µM.
As to `COC(=O)N1c2ccc3c(nc(Cn4ccccc4=O)n3C3CCOCC3)c2CC[C@@H]1C` [Example 259], the half-inhibitory concentration (IC50) lay within 1 to 1000 µM.
Turning to `COC(=O)N1c2ccc3c(nc(Cn4ccccc4=O)n3[C@H]3CCCOC3)c2CC[C@@H]1C` [Example 260], the IC50 is 1 to 1000 µM.
Turning to `COC(=O)N1c2ccc3c(nc(CCn4ccccc4=O)n3CCCS(C)(=O)=O)c2CC[C@@H]1C` [Example 261], the IC50 lay in the range of 1 to 1000 µM.
`COC(=O)N1c2ccc3c(nc(CCn4cccn4)n3C3CCS(=O)(=O)CC3)c2CC[C@@H]1C` [Example 262]: the IC50 lay within 1 to 1000 µM.
For `COC(=O)N1c2ccc3c(nc(Cc4ccccc4)n3C3CCCCC3)c2CC[C@@H]1C` [Example 263], the IC50 fell in the range of 1 to 1000 µM.
To `COC(=O)N1c2ccc3c(nc(Cc4ccccc4)n3[C@H]3CCCS(=O)(=O)C3)c2CC[C@@H]1C` [Example 264, methyl (S)-2-benzyl-3-((S)-1,1-dioxidotetrahydro-2H-thiopyran-3-yl)-7-methyl-3,7,8,9-tetrahydro-6H-imidazo[4,5-f]quinoline-6-carboxylate] belongs 1 to 1000 µM; to `COC(=O)N1c2ccc3c(nc(Cc4ccccc4)n3[C@@H]3CCCS(=O)(=O)C3)c2CC[C@@H]1C` [Example 265, methyl (S)-2-benzyl-3-((R)-1,1-dioxidotetrahydro-2H-thiopyran-3-yl)-7-methyl-3,7,8,9-tetrahydro-6H-imidazo[4,5-f]quinoline-6-carboxylate], 1 to 1000 µM.
On to `COC(=O)N1c2ccc3c(nc(CCn4cccn4)n3CCCS(C)(=O)=O)c2CC[C@@H]1C` [Example 270], for which the IC50 was 1 to 1000 µM.
As for `COC(=O)N1c2ccc3c(nc(CCn4cccn4)n3CCS(C)(=O)=O)c2CC[C@@H]1C` [Example 271], the IC50 lay in the range of 1 to 1000 µM.
For `COC(=O)N1c2ccc3c(nc(CCn4ccccc4=O)n3CCN3CCOCC3)c2CC[C@@H]1C` [Example 272], the half-inhibitory concentration (IC50) was 1 to 1000 µM.
Turning to `COC(=O)N1c2ccc3c(nc(CCn4ccccc4=O)n3CCS(C)(=O)=O)c2CC[C@@H]1C` [Example 273], the IC50 was in the range of 1 to 1000 µM.
As to `COC(=O)N1c2ccc3c(nc(CCn4nccn4)n3C3CCS(=O)(=O)CC3)c2CC[C@@H]1C` [Example 275], the IC50 lay in the range of 1 to 1000 µM.
For `COC(=O)N1c2ccc3c(nc(Cc4ccccc4)n3C3CCN(c4nnn[nH]4)CC3)c2CC[C@@H]1C` [Example 278] the value was 1 to 1000 µM; for `COC(=O)N1c2ccc3c(nc(Cc4ccccc4)n3[C@@H]3CCC[C@H](c4nnn[nH]4)C3)c2CC[C@@H]1C` [Example 279, methyl (S)-3-((1R,3S)-3-(1H-tetrazol-5-yl)cyclohexyl)-2-benzyl-7-methyl-3,7,8,9-tetrahydro-6H-imidazo[4,5-f]quinoline-6-carboxylate], 1 to 1000 µM.
Regarding `COC(=O)N1c2ccc3c(nc(Cc4ccccc4)n3[C@H]3CCC[C@@H](c4nnn[nH]4)C3)c2CC[C@@H]1C` [Example 280, methyl (S)-3-((1S,3R)-3-(1H-tetrazol-5-yl)cyclohexyl)-2-benzyl-7-methyl-3,7,8,9-tetrahydro-6H-imidazo[4,5-f]quinoline-6-carboxylate], the IC50 fell in the range of 1 to 1000 µM.
With `COC(=O)N1c2ccc3c(nc(Cc4ccccc4)n3[C@@H]3CCC[C@@H](c4nnn[nH]4)C3)c2CC[C@@H]1C` [Example 281, methyl (S)-3-((1R,3R)-3-(1H-tetrazol-5-yl)cyclohexyl)-2-benzyl-7-methyl-3,7,8,9-tetrahydro-6H-imidazo[4,5-f]quinoline-6-carboxylate], the IC50 was 1 to 1000 µM.
To `COC(=O)N1c2ccc3c(nc(Cc4ccccc4)n3[C@H]3CCC[C@H](c4nnn[nH]4)C3)c2CC[C@@H]1C` [Example 282, methyl (S)-3-((1S,3S)-3-(1H-tetrazol-5-yl)cyclohexyl)-2-benzyl-7-methyl-3,7,8,9-tetrahydro-6H-imidazo[4,5-f]quinoline-6-carboxylate] belongs 1 to 1000 µM; to `COC(=O)N1c2ccc3c(nc(Cc4ccccc4)n3[C@H]3CC[C@H](c4nnn[nH]4)CC3)c2CC[C@@H]1C` [Example 283], 1 to 1000 µM.
